What all share (assay type): cell-based
The subject of data set [1] is ypt1^ts cells. The data set can be described thus: Rescue of growth of ypt1^ts mutant yeast (OD600). Conditions: Saccharomyces cerevisiae, read-out: Ypt1-ts MRC (Minimum Rescue Concentration), ypt1^ts cells, 35° C. and 37° C., OD600; multiple results separated by a comma. The text has this:
The activity of the compounds as modulators of protein trafficking may be measured in the assays described herein that evaluate the ability of a compound to rescue an impairment in protein trafficking. For example, the yeast mutant cell line ypt1^ts can be used to identify compounds that rescue cells from the lethal phenotype of a mutant YPT1 allele (see, e.g., Examples and Schmitt et al. (1988) Cell 53:635-47). The activity may be measured, for example, in a whole yeast cell assay using 384-well screening protocol and an optical density measurement.
The yeast mutant cell line ypt1^ts suppresses, in a temperature dependent fashion, the dominant-lethal phenotype of a mutant YPT1 allele (Schmitt et al. (1988) Cell 53:635-47). The yeast mutant cell line ypt1^ts contains an allele of YPT1 that has two point mutations: one that changes an asparagine at position 121 to a isoleucine (N121I) and another that changes an alanine at position 161 to a valine (A161V). The N121I mutation causes dominant lethality by itself, but lethality is suppressed by the second mutation, resulting in a recessive loss of function phenotype at the restrictive temperatures. ypt1^ts cells grow normally at temperatures up to 25° C., but are growth arrested at 37° C. (Id.).
Compounds were screened to assess their ability to restore growth of ypt1^ts cells. The effect of the compounds was measured on ypt1^ts cells cultured at room temperature (permissive temperature), 37° C. (non-permissive temperature), and 35° C. (semi-permissive temperature).
To determine if the test compounds could rescue the ypt1^ts mutant phenotype, ypt1^ts cells were grown overnight in synthetic complete (SC) media supplemented with 2% glucose at room temperature. Log phase cells were diluted into SC 2% glucose media to an OD600 of 0.003. 100 μL of this culture was then aliquoted into each well of 96-well flat bottom microtiter plates. 1 μL of the test compounds dissolved in DMSO (at a concentration range from 5 mM-0.005 mM) or of DMSO alone was added to each well (50 μM-0.05 μM final concentration in 1% DMSO). Plates were mixed by vortexing and incubated at 35° C. and 37° C. Compound rescue of the ypt1^ts temperature sensitive defect was assessed by measuring the OD600 (optical density at 600 nm; cell growth) of the cultures. Plates incubated at 35° C. were measured at 24 and 40 hours incubation time while plates grown at 37° C. were measured after 40 hours of incubation.
Assays monitoring the rescue of ypt1^ts mutants were performed using a vehicle, a positive control (calcium), and the compounds identified in Table II. Results in Table II corresponding to an MRC (Minimum Rescue Concentration) for ypt1^ts of greater than or equal to 50 micromolar are labeled +; of an MRC for ypt1^ts of 10-50 micromolar are labeled ++; and of an MRC for ypt1^ts of less than 10 micromolar are labeled +++. Multiple results for a particular compound are separated by a comma.

Data set [2] addresses T1, ΔF508 CFTR (Homo sapiens, UniProt P13569, DEL508-508). The data set can be described thus: Corrector activity, YFP halide (iodide) quenching assay in FRT cells expressing ΔF508 CFTR. The arrangement: expressed in transfected cells; host or cells: Fischer rat thyroid (FRT) cells. Conditions: FRT cells ΔF508 CFTR/YFP, 24 hours with compound at 37° C., forskolin and genistein; read-out: Corrector EC50. The procedure, abridged:
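FRT cells co-expressing ΔF508 CFTR and halide-sensitive YFP were incubated 24 h at 37° C with compounds, then stimulated 30 min at 37° C in PBS with forskolin and genistein. Endpoint fluorescence after iodide injection was normalized to initial reading; EC50 from 4-parameter fit with bottom constrained to DMSO control.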

Data set [3] concerns the target T1, ΔF508 CFTR. Kind of data set: Potentiator activity, YFP halide (iodide) quenching assay in FRT cells expressing ΔF508 CFTR, 27° C. pre-incubation. More on the design: expressed in transfected cells; host or cells: Fischer rat thyroid (FRT) cells. Conditions: FRT cells ΔF508 CFTR/YFP, 24 hours at 27° C., compound with forskolin 30 min. The procedure, abridged:
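FRT cells stably co-expressing ΔF508 CFTR and halide-sensitive YFP, grown 24 h at 37° C. then 24 h at 27° C. to raise surface CFTR. Compounds in PBS with forskolin, 30 min at 37° C.; iodide injected and YFP quenching (ex 485/em 530 nm) followed. EC50 from normalized endpoint fluorescence.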

Data set [4] deals with T1, ΔF508 CFTR. The data set can be described thus: Stabilization of ΔF508 CFTR in CFBE cells (western blot, densitometry). The conditions noted are these: 16 hours at 37° C., 1.25-10 μM (compound 25), 1-10 μM (compound 5). The text has this: In addition, efficacy of a compound can be evaluated before (first in time), concomitantly or subsequently to the above-mentioned test modalities by monitoring, e.g., (i) modulation (e.g., an improvement) of the stability of a trafficking defective protein, (ii) modulation (e.g., an improvement) of proper, physiological trafficking of the trafficking defective protein, or (iii) modulation (e.g., a restoration) in one or more functions of a trafficking defective protein. For example, in some cases, proteins (e.g., protein mutants such as ΔF508 CFTR) are prematurely degraded. Thus, the efficacy of a given compound to modulate protein trafficking can be determined by monitoring the stability of a protein in the presence as compared to the absence of the compound. For example, cells expressing a trafficking defective protein (e.g., expressing endogenously or expressing an exogenous transgene encoding a trafficking defective protein such as ΔF508 CFTR) can be cultured in the presence or absence of a compound for at least 1 hour (e.g., at least 2 hours, at least 4 hours, at least 6 hours, at least 8 hours, at least 12 hours, at least 16 hours, at least 24 hours, at least 36 hours, or at least 48 hours). Cell lysates can be prepared from the different populations of cells, suspended in Laemmli buffer (with or without reducing agent) and subjected to sodium dodecyl sulfate-polyacrylamide gel electrophoresis (SDS-PAGE). Using antibodies that specifically recognize the trafficking defective protein (e.g., CFTR), the amount of the protein in the presence as compared to in the absence of a compound can be determined by western or dot-blotting techniques. […] Where a modified state (e.g., glycosylation or phosphorylation) of a protein is indicative of increased stability, a change in the modified state of a protein can also be used to determine if a compound stabilizes the trafficking defective protein. For example, the amount of glycosylated CFTR (e.g., ΔF508 CFTR) can be assessed in the presence as compared to the absence of a compound.
The compounds can be tested for their ability to stabilize ΔF508 CTFR. CFBE cells, a cell line generated by transformation of cystic fibrosis tracheo-bronchial cells (ΔF508 CTFR homozygous) with SV40 (Bruscia et al. (2002) Gene Ther. 9(11):683-685), can be cultured with 10 μM of the selected compounds, or 10 μM VRT-325 for 16 hours at 37° C. (VRT-325 is described in, e.g., Van Goor et al. (2006) Am. J. Physiol. Lung Cell Mol. Physiol. 290:L1117-L1130). A population of cells can also be cultured with the dimethyl sulfoxide (DMSO) solvent as a control.
Following incubation, cells were lysed, solubilized in Laemmli buffer, and subjected to SDS-PAGE. CFTR protein were visualized by western blotting using an antibody specific for CFTR. Culturing CFBE cells with compound 25 (see Table I for structure) increased the amount of cellular ΔF508 CFTR protein.
The effect of different concentrations of compound 25 on ΔF508 CFTR was tested in a dose response experiment. […] The relative amounts of glysosylated and unglycosylated ΔF508 CFTR protein were visualized by western blotting (FIG. 10A), and the band intensities wer quantitated by scanning and densitometry (FIG. 10B). […] The relative amounts of glysosylated and unglycosylated ΔF508 CFTR protein were visualized by western blotting (FIG. 11A), and the band intensities wer quantitated by scanning and densitometry (FIG. 11B).
A general note: A western blot detects proteins with antibodies after separation by electrophoresis.

The subject of data set [5] is TS217 cells. The data set can be described thus: Rescue of cell viability from α-synuclein-induced cytotoxicity (cellular ATP, […]). The conditions noted are these: tetracycline 5 days, 3 μM concentration, P<0.02. The method, then:
Treatment of TS217 cells with 0.1 μg/mL tetracycline for three to six days induces expression of α-synuclein, which can be cytotoxic. […] After the five day treatment, cells were lysed and assayed for intracellular ATP concentration as a function of cell viability. The relative viability of the cells was assessed by measuring the cellular ATP level in cell lysates using a […]® Plus Bioassay kit (Cambrex, Rockland, Me.). Relative cell viability was calculated as the ratio of induced cells to control cells (cells not treated with tetracycline), as an indication of α-synuclein-induced cytotoxicity. […] By contrast, cells treated with compound 90 at 3 μM concentration reduced the α-synuclein-induced cytotoxicity by 45% (P<0.02) as compared to the control wells lacking the compound. Thus, compound 90 rescues cell viability from α-synuclein-induced cytotoxicity.

Each structure is given as a SMILES string.

T1 sequence (P13569 with tags, fused parts or gaps DEL508-508): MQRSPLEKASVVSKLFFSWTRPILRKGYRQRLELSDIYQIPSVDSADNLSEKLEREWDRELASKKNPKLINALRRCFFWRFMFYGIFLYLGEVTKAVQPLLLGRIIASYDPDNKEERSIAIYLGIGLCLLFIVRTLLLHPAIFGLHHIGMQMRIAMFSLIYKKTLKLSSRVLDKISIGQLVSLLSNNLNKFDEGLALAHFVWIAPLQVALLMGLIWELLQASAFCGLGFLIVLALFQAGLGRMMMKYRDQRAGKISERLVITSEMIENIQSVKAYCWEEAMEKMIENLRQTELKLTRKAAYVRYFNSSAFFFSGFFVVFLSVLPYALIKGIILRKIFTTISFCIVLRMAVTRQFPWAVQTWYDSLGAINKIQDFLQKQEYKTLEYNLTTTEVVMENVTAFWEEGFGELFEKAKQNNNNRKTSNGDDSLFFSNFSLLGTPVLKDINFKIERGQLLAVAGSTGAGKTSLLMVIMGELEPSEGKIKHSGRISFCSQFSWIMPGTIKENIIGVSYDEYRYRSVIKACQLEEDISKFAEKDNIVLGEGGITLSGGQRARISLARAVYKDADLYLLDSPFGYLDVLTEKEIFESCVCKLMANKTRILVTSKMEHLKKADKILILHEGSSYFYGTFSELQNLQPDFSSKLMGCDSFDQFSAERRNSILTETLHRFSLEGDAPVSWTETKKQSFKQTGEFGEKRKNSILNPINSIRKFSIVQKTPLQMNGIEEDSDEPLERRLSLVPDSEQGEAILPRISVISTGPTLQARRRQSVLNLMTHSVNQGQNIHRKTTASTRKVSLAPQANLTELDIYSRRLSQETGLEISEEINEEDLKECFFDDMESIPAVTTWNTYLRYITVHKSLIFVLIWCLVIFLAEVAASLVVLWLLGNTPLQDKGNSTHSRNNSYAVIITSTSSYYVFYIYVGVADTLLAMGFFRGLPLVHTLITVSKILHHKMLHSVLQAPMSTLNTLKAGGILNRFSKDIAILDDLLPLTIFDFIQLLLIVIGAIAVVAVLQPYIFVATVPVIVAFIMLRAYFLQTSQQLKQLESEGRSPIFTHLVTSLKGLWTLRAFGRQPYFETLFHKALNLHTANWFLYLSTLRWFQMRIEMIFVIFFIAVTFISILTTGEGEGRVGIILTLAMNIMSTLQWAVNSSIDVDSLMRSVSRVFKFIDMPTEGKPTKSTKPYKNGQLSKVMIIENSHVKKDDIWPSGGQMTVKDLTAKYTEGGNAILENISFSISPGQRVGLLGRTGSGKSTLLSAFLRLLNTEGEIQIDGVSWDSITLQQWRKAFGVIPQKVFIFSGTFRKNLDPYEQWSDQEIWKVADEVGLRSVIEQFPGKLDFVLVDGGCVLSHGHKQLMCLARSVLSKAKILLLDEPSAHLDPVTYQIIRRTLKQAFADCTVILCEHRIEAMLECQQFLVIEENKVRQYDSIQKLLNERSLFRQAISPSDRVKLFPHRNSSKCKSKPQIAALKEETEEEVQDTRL

In the case of `CC(=O)Nc1ncnc2c1c(-c1ccc(Cl)cc1)nn2C(C)(C)C` [Compound No. 2, N-[1-tert-Butyl-3-(4-chloro-phenyl)-1H-pyrazolo[3,4-d]pyrimidin-4-yl]-acetamide], the minimal effective concentration in data set [1] was more than 50 µM. Also, the 50% effective concentration (EC50) – broadly, the concentration giving half of the maximal effect – in data set [2] was 5 to 10 µM; in data set [3] it was less than 2 µM.

Take `CC(C)(C)n1nc(Cc2cccc3ccccc23)c2c(N)ncnc21` [compound 5]: in data set [1], the minimal effective concentration is less than 10 µM. The “glycosylated (Band B) ΔF508 CFTR protein vs absence of compound, dose response” value in data set [4] was “increased”. Also, in data set [2], the concentration giving a half-maximal response (EC50) was more than 15 µM.

Turning to `CC(C)(C)n1nc(-c2cccc(Cl)c2)c2c(N)ncnc21` [compound 10], in data set [1], the minimal effective concentration is more than 50 µM. For the same compound, the values for the EC50 in data set [2] and in data set [3] were more than 15 µM and less than 2 µM, respectively.

As to `CCn1nc(-c2ccc(Cl)cc2)c2c(N)ncnc21` [compound 31], the minimal effective concentration in data set [1] is less than 10 µM. For the same compound, the values for the EC50 in data set [2] and in data set [3] were 5 to 10 µM and more than 15 µM, respectively.

As for `Nc1ncnc2c1c(-c1ccc(Cl)cc1)nn2C1CCC1` [compound 33], the minimal effective concentration in data set [1] fell in the range of 10 to 50 µM. Further, the figures for the EC50 in data set [2] and in data set [3] were 5 to 10 µM and less than 2 µM, respectively.

With `CCn1cc(-c2ccc(C)cc2)c2c(N)cccc21` [compound 43, 1-Ethyl-3-p-tolyl-1H-indol-4-ylamine], the minimal effective concentration in data set [1] was more than 50 µM. For the same compound, the 50% effective concentration (EC50) in data set [2] and in data set [3] was more than 15 µM in each case.

As for `CCn1nc(-c2ccc(C)cc2)c2c(N)cccc21` [compound 44, 1-Ethyl-3-p-tolyl-1H-indazol-4-ylamine], the minimal effective concentration in data set [1] was more than 50 µM. Besides, the EC50 in data set [2] and in data set [3] was more than 15 µM throughout.

As to `COC(=O)c1cnc2c(c(-c3ccc(C)cc3)nn2C(C)(C)C)c1N` [compound 46], the minimal effective concentration in data set [1] is more than 50 µM. In addition, the EC50 in data set [2] and in data set [3] was more than 15 µM throughout.

In the case of `CNC(=O)c1cnc2c(c(-c3ccc(C)cc3)nn2C(C)(C)C)c1N` [compound 47], the minimal effective concentration in data set [1] was more than 50 µM. Besides, the EC50 in data set [2] and in data set [3] was more than 15 µM each time.

As for `CCn1nc2cccc(N)c2c1-c1ccc(C)cc1` [compound 80], the minimal effective concentration in data set [1] is more than 50 µM. The EC50 in data set [2] and in data set [3] was more than 15 µM throughout.

Take `CCn1cc(-c2ccc(C)cc2)c2c(N)ncnc21` [compound 86]: the minimal effective concentration in data set [1] lay in the range of 10 to 50 µM. The figures for the EC50 in data set [2] and in data set [3] were 2 to 5 µM and 5 to 10 µM, respectively.

Regarding `CC(C)(C)n1nc(Oc2ccccc2)c2c(N)ncnc21` [compound 90, 1-tert-Butyl-3-phenoxy-1H-pyrazolo[3,4-d]pyrimidin-4-ylamine], the minimal effective concentration in data set [1] was more than 50 µM. Further, the “reduction of α-synuclein-induced cytotoxicity compared to control wells” value in data set [5] stood at 45%. Besides, the concentration giving a half-maximal response (EC50) in data set [2] was more than 15 µM; in data set [3] it was less than 2 µM.

Values taken from US20100331297A1, “MODULATION OF PROTEIN TRAFFICKING” (FOLDRX PHARMACEUTICALS, INC., priority 2007, published 2010).
